# Values of other authors, collected in patent US20050159439A1, “Management of postoperative pain” (priority 2001, published 2005).
# System: subjects operated on for lumbar disc herniation
# Details: 10 mg epidural morphine, lumbar disc herniation surgery
smiles,measurement,value
CN1CC[C@]23c4c5ccc(O)c4O[C@H]2[C@@H](O)C=C[C@H]3[C@H]1C5 [morphine],Pain relief,significant pain relief
same,Side effect,urinary retention was the relevant side effect
